Legend:
RimK [1] = molecular target: T1, RimK (Pseudomonas fluorescens, UniProt C3KE61); assay: PK/LDH-coupled ATPase assay; RpsF glutamation SDS-PAGE gel shift; assay type: biochemical; conditions: activator; ATPase with 25 uM cdG, 2.5 uM RimK, pH 9.0, 20 mM MgSO4, 25 °C
T1 construct: His6-tagged, expressed in E. coli BL21(DE3) pLysS, Ni-NTA purified
T1 sequence (C3KE61 1-301): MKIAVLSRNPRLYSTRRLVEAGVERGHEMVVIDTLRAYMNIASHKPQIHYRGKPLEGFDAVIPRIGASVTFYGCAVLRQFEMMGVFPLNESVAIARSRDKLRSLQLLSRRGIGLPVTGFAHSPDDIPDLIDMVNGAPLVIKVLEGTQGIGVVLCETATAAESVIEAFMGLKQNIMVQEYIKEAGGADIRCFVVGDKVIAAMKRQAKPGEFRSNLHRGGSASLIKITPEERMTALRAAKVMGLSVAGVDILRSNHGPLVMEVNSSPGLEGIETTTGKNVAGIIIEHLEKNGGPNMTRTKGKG

RimK [2] = molecular target: T1, RimK; assay: PK/LDH-coupled ATPase assay (NADH oxidation); assay type: biochemical; conditions: 100 mM Tris-Cl pH 9.0, 20 mM MgSO4, 25 °C
RimK [3] = molecular target: T1, RimK; assay: RpsF glutamation assay, SDS-PAGE and mass spectrometry; assay type: biochemical; conditions: acceptor RpsF10glu (SBW25); 20 mM ATP, 20 mM MgSO4, pH 9.0, room temperature
[4] = molecular target: SBW25 RimK (Pseudomonas fluorescens SBW25) (UniProt C3KE61)

## Nc1nc2c(ncn2[C@@H]2O[C@@H]3COP(=O)(O)O[C@H]4[C@@H](O)[C@H](n5cnc6c(=O)[nH]c(N)nc65)O[C@@H]4COP(=O)(O)O[C@H]3[C@H]2O)c(=O)[nH]1 [cdG, cyclic-di-GMP]
RimK [1]
  PK/LDH-coupled ATPase assay; RpsF glutamation SDS-PAGE gel shift: cdG was shown to stimulate both ATPase activity (Fig 2A) and RpsF modification (Fig 2B)

## Nc1ncnc2c1ncn2[C@@H]1O[C@H](COP(=O)(O)OP(=O)(O)OP(=O)(O)O)[C@@H](O)[C@H]1O [ATP]
RimK [2]
  PK/LDH-coupled ATPase assay (NADH oxidation): plotting the specific activity of the enzyme (nmol ATP hydrolyzed/min/mg protein) versus ATP concentration

## N[C@@H](CCC(=O)O)C(=O)O [L-glutamate]
RimK [3]
  RpsF glutamation assay, SDS-PAGE and mass spectrometry: addition of RimK resulted in unregulated modification of RpsF10glu in a glutamate-dependent manner

## SBW25 RimA (enzyme)
[4]
  Kd fitted to the RimK ATPase activity data of Fig 2E with the four-state kinetic model (RimK, RimK.RimA, RimK.cdG, RimK.cdG.RimA): 200 nM
  Kd fitted to the RimK ATPase activity data of Fig 2E with the two-state kinetic model (RimK, RimK*), which the paper calls unlikely: 83.2 nM
